Assay results as given in patent publication US9156811B2 (priority 2008, dated 2015).
pIC50: −log10 of the molar value. Read-outs that look alike come from different tables or passages of the source. Blank lines part the entries; values can stand above or below the compound they belong to.

What was measured:
HCT116 = assay: In-vitro antiproliferative assay, HCT116; assay type: cell-based, human; conditions: read-out: IC50 HCT116
MDA-MB-231 = assay: In-vitro antiproliferative assay, MDA-MB-231; assay type: cell-based, human; conditions: read-out: IC50 MDA-MB-231
[1] = CNS penetration: drug concentration in blood and brain after i.v. dosing; assay type: in vivo; conditions: iv, female NMRI mouse, t = 5 min; for concentration at 5 min: average of three animals; for Kp at 5 min: brain / whole blood
[2] = tested on: Trypanosome (T. brucei brucei); assay: In-vitro antitrypanosomal efficacy assay (cell growth, resazurin); assay type: cell-based
HT29 = assay: In-vitro antiproliferative assay, HT29; assay type: cell-based, human; conditions: Table 4, 72 h, Alamar blue, read-out: IC50 HT-29
human NMT-1 = human NMT-1 (Homo sapiens (Human), UniProt P30419); assay: NMT enzyme inhibition scintillation proximity assay, human NMT-1; assay type: biochemical
[3] = biological target: T. brucei N-myristoyl transferase (Trypanosoma brucei brucei (strain 927/4 GUTat10.1), UniProt Q388H8); assay: biochemical; assay type: biochemical
[4] = biological target: A. fumigatus N-myristoyl transferase (Aspergillus fumigatus (strain ATCC MYA-4609 / CBS 101355 / FGSC A1100 / Af293) (Neosartorya fumigata), UniProt Q9UVX3); assay: biochemical; assay type: biochemical; conditions: read-out: IC50 (μM) NMT Enzyme (AfNMT)
NCI-H1299 = assay: In-vitro antiproliferative assay, NCI-H1299; assay type: cell-based; conditions: Homo sapiens, read-out: IC50 NCI-H1299
OE19 = assay: In-vitro antiproliferative assay, OE19; assay type: cell-based; conditions: Homo sapiens, read-out: IC50 OE19
OE21 = assay: In-vitro antiproliferative assay, OE21; assay type: cell-based; conditions: Homo sapiens, read-out: IC50 OE21
[5] = biological target: L. major N-myristoyl transferase (Leishmania major, UniProt Q4Q5S8); assay type: biochemical; conditions: Leishmania major NMT; value in parentheses; read-out: IC50 (μM) NMT Enzyme (LmNMT)
[6] = brain, single i.v. dose 2.0 mg/kg, read-out: Conc (ng/ml in brain)
[7] = whole blood, single i.v. dose 2.0 mg/kg, read-out: Conc (ng/ml in blood)
[8] = Homo sapiens, HCT-116, Table 4, 72 h, Alamar blue
[9] = Homo sapiens, MDA-MB-231, Table 4, 72 h, Alamar blue
[10] = T. brucei brucei, blood stream form, variant 221
[11] = value with no enzyme tag in the cell, taken as T. brucei NMT, read-out: IC50 (μM) NMT Enzyme
[12] = value printed without enzyme tag in the NMT Enzyme column (taken as T. brucei NMT), read-out: IC50 (μM) NMT Enzyme

Chain of T. brucei N-myristoyl transferase (Q388H8 1-446): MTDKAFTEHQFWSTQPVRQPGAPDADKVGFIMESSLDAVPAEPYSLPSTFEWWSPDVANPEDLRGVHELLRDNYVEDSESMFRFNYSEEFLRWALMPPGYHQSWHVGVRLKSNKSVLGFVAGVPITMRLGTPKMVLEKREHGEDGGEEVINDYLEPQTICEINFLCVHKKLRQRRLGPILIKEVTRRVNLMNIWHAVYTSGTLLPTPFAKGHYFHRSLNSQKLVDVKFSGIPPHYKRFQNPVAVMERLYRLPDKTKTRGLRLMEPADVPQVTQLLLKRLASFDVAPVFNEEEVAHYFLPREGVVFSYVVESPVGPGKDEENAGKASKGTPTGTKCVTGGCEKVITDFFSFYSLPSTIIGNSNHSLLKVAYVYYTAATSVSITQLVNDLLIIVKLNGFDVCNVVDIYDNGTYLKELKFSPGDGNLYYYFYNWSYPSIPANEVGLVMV
Chain of human NMT-1 (P30419 whole entry): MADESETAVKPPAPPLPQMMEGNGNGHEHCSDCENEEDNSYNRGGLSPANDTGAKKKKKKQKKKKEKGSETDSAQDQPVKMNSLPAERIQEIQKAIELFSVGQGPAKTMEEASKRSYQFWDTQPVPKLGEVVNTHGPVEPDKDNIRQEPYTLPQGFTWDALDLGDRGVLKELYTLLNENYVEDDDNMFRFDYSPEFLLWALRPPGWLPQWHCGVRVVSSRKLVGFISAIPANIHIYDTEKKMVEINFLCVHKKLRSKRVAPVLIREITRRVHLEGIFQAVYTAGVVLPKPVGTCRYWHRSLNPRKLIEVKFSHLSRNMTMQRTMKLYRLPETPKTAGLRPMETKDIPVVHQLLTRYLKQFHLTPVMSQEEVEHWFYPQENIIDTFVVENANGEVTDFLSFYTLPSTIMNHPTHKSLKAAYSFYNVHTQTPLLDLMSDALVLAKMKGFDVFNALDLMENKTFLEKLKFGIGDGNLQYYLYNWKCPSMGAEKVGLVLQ
Chain of L. major N-myristoyl transferase (Q4Q5S8 1-421): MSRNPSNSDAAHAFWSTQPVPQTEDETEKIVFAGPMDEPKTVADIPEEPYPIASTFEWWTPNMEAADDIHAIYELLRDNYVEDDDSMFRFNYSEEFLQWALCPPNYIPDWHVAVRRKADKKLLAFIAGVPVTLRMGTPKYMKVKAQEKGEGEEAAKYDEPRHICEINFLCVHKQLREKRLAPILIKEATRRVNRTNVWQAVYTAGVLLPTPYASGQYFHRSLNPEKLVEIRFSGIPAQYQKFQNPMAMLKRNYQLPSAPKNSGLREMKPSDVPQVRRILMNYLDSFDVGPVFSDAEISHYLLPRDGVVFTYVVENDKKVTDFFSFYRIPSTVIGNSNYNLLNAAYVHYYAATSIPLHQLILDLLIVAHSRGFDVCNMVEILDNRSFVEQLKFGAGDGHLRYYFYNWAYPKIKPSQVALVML

Structure (SMILES): Cc1nn(C)c(C)c1N(C(F)F)[S+](=O)([O-])c1c(Cl)cc(CCCCC2CCN(C)CC2)cc1Cl [DDD100144, 2,6-dichloro-N-(difluoromethyl)-4-(4-(1-methylpiperidin-4-yl)butyl)-N-(1,3,5-trimethyl-1H-pyrazol-4-yl)benzenesulfonamide]
pIC50 (HCT116; Homo sapiens, HCT-116, 72 h): 6.55 | pIC50 (MDA-MB-231; Homo sapiens, MDA-MB-231, 72 h): 6.66 | concentration at 5 min [1, 6]: 545 ng/mL | concentration at 5 min [1, 7]: 413 ng/mL

pIC50 (HT29; Homo sapiens, HT-29): 6.75 | pIC50 (HCT116; [8]): 6.20 | pIC50 (MDA-MB-231; [9]): 6.35
Structure (SMILES): Cc1nn(C)c(C)c1N[S+](=O)([O-])c1c(Cl)cc(-c2cccc(CN3CCN(C)CC3)c2)cc1Cl [DDD88558]
ED50 (μM) T. brucei ([2]; T. brucei cell growth): 0.009 µM

Structure (SMILES): Cc1nn(C)c(C)c1N(C(F)F)[S+](=O)([O-])c1c(Cl)cc(CCCC2CCN(C)CC2)cc1Cl [DDD100097, 2,6-dichloro-N-(difluoromethyl)-4-(3-(1-methylpiperidin-4-yl)propyl)-N-(1,3,5-trimethyl-1H-pyrazol-4-yl)benzenesulfonamide]
ED50 (μM) T. brucei [2, 10]: 0.001 µM | Kp at 5 min ([1]; single i.v. dose 2.0 mg/kg): 1.5 | concentration at 5 min [1, 6]: 335 ng/mL | concentration at 5 min [1, 7]: 224 ng/mL

Structure (SMILES): Cc1nn(C)c(C)c1N(C)[S+](=O)([O-])c1ccc(CCCCCCn2ccnc2)cc1 [DDD99754]
IC50 (human NMT-1; HuNMT-1): 2.1 µM | IC50 [3, 11]: 0.105 µM | IC50 [4]: > 1 µM | ED50 (μM) T. brucei ([2]; T. brucei cell growth): >1 µM

Structure (SMILES): Cc1nn(C)c(C)c1N[S+](=O)([O-])c1ccc(-c2cccc(Cn3ccnc3)c2)cc1 [DDD88006, 3′-imidazol-1-ylmethyl-biphenyl-4-sulfonic acid (1,3,6-trimethyl-1H-pyrazol-4-yl)-amide]
IC50 [3, 11]: 0.35 µM | IC50 [4]: 4.2 µM | ED50 (μM) T. brucei ([2]; T. brucei cell growth): 3.9 µM

Structure (SMILES): Cc1nn(C)c(C)c1NS(=O)(=O)c1ccc(N2CCc3cccc(N)c3C2)nc1 [DDD73498, 6-(8-Amino-3,4-dihydro-1H-isoquinolin-2-yl)-pyridine-3-sulfonic acid (1,3,5-trimethyl-1H-pyrazol-4-yl)-amide]
IC50 (human NMT-1; HuNMT-1): 4.3 µM | IC50 [3, 12]: 0.32 µM | IC50 ([4]; AfNMT): 14.7 µM | ED50 (μM) T. brucei ([2]; T. brucei cell growth): 2.6 µM

pIC50 (NCI-H1299; NCI-H1299, 72 h): 5.43 | pIC50 (MDA-MB-231; Homo sapiens, MDA-MB-231, 72 h): 6.05
Structure (SMILES): Cc1nn(C)c(C)c1N[S+](=O)([O-])c1c(Cl)cc(-c2cccc(C3CCNCC3)c2)cc1Cl
ED50 (μM) T. brucei ([2]; T. brucei cell growth): 0.02 µM | pIC50 (OE19; OE19, 72 h): 5.34 | pIC50 (OE21; OE21, 72 h): 5.92

pIC50 (NCI-H1299; NCI-H1299, Table 3, 72 h, Alamar blue): 5.97 | pIC50 (MDA-MB-231; Homo sapiens, MDA-MB-231, Table 3, 72 h, Alamar blue): 6.19
Structure (SMILES): Cc1nn(C)c(C)c1N[S+](=O)([O-])c1ccc(-c2cccc(CN3CCN(C)CC3)c2)cc1 [DDD86212, 3′-(4-Methyl-piperazin-1-ylmethyl)-biphenyl-4-sulfonic acid (1,3,6-trimethyl-1H-pyrazol-4-yl)-amide]
ED50 (μM) T. brucei ([2]; T. brucei cell growth): 0.03 µM | pIC50 (OE19; OE19, Table 3, 72 h, Alamar blue): 5.36 | pIC50 (OE21; OE21, Table 3, 72 h, Alamar blue): 5.86

Structure (SMILES): CCN(CC)Cc1cccc(-c2ccc([S+](=O)([O-])Nc3c(CC(C)C)nn(C)c3C)cc2)c1 [DDD88638]
IC50 [3, 11]: 0.009 µM | ED50 (μM) T. brucei ([2]; T. brucei cell growth): 0.084 µM | Kp at 5 min ([1]; single i.v. dose 2.0 mg/kg): 1.35 | concentration at 5 min [1, 6]: 378 ng/mL | concentration at 5 min [1, 7]: 281 ng/mL

Structure (SMILES): Cc1nn(C)c(C)c1N(C)[S+](=O)([O-])c1c(Cl)cc(Br)cc1Cl [DDD73490, 4-Bromo-2,6-dichloro-N-methyl-N-(1,3,5-trimethyl-1H-pyrazol-4-yl)-benzenesulfonamide]
IC50 (human NMT-1; HuNMT-1): 4 µM | IC50 [3, 12]: 0.36 µM | IC50 ([4]; AfNMT): 3.9 µM | ED50 (μM) T. brucei ([2]; T. brucei cell growth): 2.8 µM | Kp at 5 min ([1]; single i.v. dose 0.33 mg/kg): 6 | concentration at 5 min ([1]; brain, single i.v. dose 0.33 mg/kg, read-out: Conc (ng/ml in brain)): 314 ng/mL | concentration at 5 min ([1]; whole blood, single i.v. dose 0.33 mg/kg, read-out: Conc (ng/ml in blood)): 52 ng/mL

Structure (SMILES): CCN(CC)Cc1cccc(-c2ccc([S+](=O)([O-])N(C)c3c(C)nn(C)c3C)cc2)c1 [DDD88195, 3′-Diethylaminomethyl-biphenyl-4-sulfonic acid methyl-(1,3,5-trimethyl-1H-pyrazol-4-yl)-amide]
IC50 [3, 11]: 0.05 µM | ED50 (μM) T. brucei ([2]; T. brucei cell growth): 0.51 µM | Kp at 5 min ([1]; single i.v. dose 1.0 mg/kg): 0.8 | concentration at 5 min ([1]; brain, single i.v. dose 1.0 mg/kg, read-out: Conc (ng/ml in brain)): 93 ng/mL | concentration at 5 min ([1]; whole blood, single i.v. dose 1.0 mg/kg, read-out: Conc (ng/ml in blood)): 116 ng/mL

IC50 [3, 11]: 0.004 µM | pIC50 (HT29): 6.55 | pIC50 (HCT116; Table 4, 72 h, Alamar blue): 6.04 | pIC50 (MDA-MB-231; Table 4, 72 h, Alamar blue): 6.27
Structure (SMILES): Cc1c(N[S+](=O)([O-])c2c(Cl)cc(CCCC3CCNCC3)cc2Cl)c(CC(C)C)nn1C [DDD90086]
ED50 (μM) T. brucei ([2]; T. brucei cell growth): 0.006 µM

IC50 (human NMT-1; HuNMT-1): 2.3 µM | IC50 [3, 12]: 0.32 µM | IC50 ([4]; AfNMT): 4.8 µM
Structure (SMILES): COc1cc2c(cc1OC)CN(c1ccc([S+](=O)([O-])Nc3c(C)nn(C)c3C)cn1)CC2 [DDD73476]
ED50 (μM) T. brucei ([2]; T. brucei cell growth): 1.8 µM

Structure (SMILES): Cc1c(N[S+](=O)([O-])c2ccc(-c3cccc(CN(C)C)c3)cc2)c(CC(C)C)nn1C [DDD99742]
ED50 (μM) T. brucei ([2]; T. brucei cell growth): 0.019 µM | Kp at 5 min ([1]; single i.v. dose 2.0 mg/kg): 0.66 | concentration at 5 min [1, 6]: 422 ng/mL | concentration at 5 min [1, 7]: 642 ng/mL

Structure (SMILES): Cc1c(NS(=O)(=O)c2ccc(CCCC3CCN(C)CC3)cc2)c(CC(C)C)nn1C [DDD99837, N-(3-isobutyl-1,5-dimethyl-1H-pyrazol-4-yl)-4-(3-(1-methylpiperidin-4-yl)propyl)benzenesulfonamide]
ED50 (μM) T. brucei [2, 10]: 0.036 µM | Kp at 5 min ([1]; single i.v. dose 3.0 mg/kg): 0.26 | concentration at 5 min ([1]; brain, single i.v. dose 3.0 mg/kg, read-out: Conc (ng/ml in brain)): 99 ng/mL | concentration at 5 min ([1]; whole blood, single i.v. dose 3.0 mg/kg, read-out: Conc (ng/ml in blood)): 388 ng/mL

Structure (SMILES): Cc1nn(C)c(C)c1N(CC(F)(F)F)[S+](=O)([O-])c1c(Cl)cc(CCCC2CCN(C)CC2)cc1Cl [DDD100153, 2,6-dichloro-4-(3-(1-methylpiperidin-4-yl)propyl)-N-(2,2,2-trifluoroethyl)-N-(1,3,5-trimethyl-1H-pyrazol-4-yl)benzenesulfonamide]
ED50 (μM) T. brucei [2, 10]: 0.023 µM | Kp at 5 min ([1]; single i.v. dose 2.0 mg/kg): 0.64 | concentration at 5 min [1, 6]: 171 ng/mL | concentration at 5 min [1, 7]: 269 ng/mL

Structure (SMILES): Cc1c(N[S+](=O)([O-])c2c(Cl)cc(-c3ccnc(N4CCNCC4)c3)cc2Cl)c(CC(C)C)nn1C [DDD86481, 2,6-Dichloro-N-(3-isobutyl-1,5-dimethyl-1H-pyrazol-4-yl)-4-(2-piperazin-1-yl-pyridin-4-yl)-benzenesulfonamide]
pIC50 (NCI-H1299; NCI-H1299, 72 h): 7.02 | pIC50 (MDA-MB-231; Homo sapiens, MDA-MB-231, 72 h): 7.33 | pIC50 (OE19; OE19, 72 h): 6.88 | pIC50 (OE21; OE21, 72 h): 7.24

IC50 (human NMT-1; Human NMT-1, value in parentheses, read-out: IC50 (μM) NMT Enzyme (HuNMT-1)): > 1 µM | IC50 ([3]; T. brucei NMT, value without parentheses, read-out: IC50 (μM) NMT Enzyme (T. brucei NMT)): 7.95 µM | IC50 [5]: > 1 µM
Structure (SMILES): CCCc1nn(C)c(C)c1N[S+](=O)([O-])c1ccc(Br)cc1 [DDD100871]
ED50 (μM) T. brucei [2, 10]: 51.0 µM

pIC50 (HCT116; [8]): 6.38 | pIC50 (MDA-MB-231; [9]): 6.60
Structure (SMILES): Cc1nn(C)c(C)c1N(C(F)F)[S+](=O)([O-])c1c(Cl)cc(CCCOC2CCN(C)CC2)cc1Cl [DDD100169]
